Source: PubChem BioAssay (NCI)
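These data come from cells grown in 96-well plates and exposed to compound for 48 hours at five concentrations. Abbreviation: GI50, concentration required for 50% inhibition of growth. TGI marks complete inhibition of growth.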

Assays:
Assay in all cases: growth of human tumour cells (NCI), 48 h
A549 NSCLC = tested on: A549 NSCLC
K-562 leukemia = tested on: K-562 leukemia
LOX IMVI melanoma = tested on: LOX IMVI melanoma
MDA-MB-231 breast = tested on: MDA-MB-231 breast
SNB-19 CNS = tested on: SNB-19 CNS
SF-268 CNS = tested on: SF-268 CNS
786-0 renal = tested on: 786-0 renal
EKVX NSCLC = tested on: EKVX NSCLC
A498 renal = tested on: A498 renal
HT29 colon = tested on: HT29 colon
OVCAR-8 ovarian = tested on: OVCAR-8 ovarian
NCI/ADR-RES ovarian = tested on: NCI/ADR-RES ovarian
MCF7 breast = tested on: MCF7 breast
SK-MEL-28 melanoma = tested on: SK-MEL-28 melanoma
MOLT-4 leukemia = tested on: MOLT-4 leukemia
OVCAR-5 ovarian = tested on: OVCAR-5 ovarian
NCI-H226 lung = tested on: NCI-H226 lung
SW-620 colon = tested on: SW-620 colon
HL-60(TB) leukemia = tested on: HL-60(TB) leukemia
SK-MEL-2 melanoma = tested on: SK-MEL-2 melanoma
TK-10 renal = tested on: TK-10 renal
OVCAR-4 ovarian = tested on: OVCAR-4 ovarian
HOP-92 NSCLC = tested on: HOP-92 NSCLC
HCC-2998 colon = tested on: HCC-2998 colon
HCT-15 colon = tested on: HCT-15 colon
SF-295 CNS = tested on: SF-295 CNS
U251 CNS = tested on: U251 CNS
CAKI-1 renal = tested on: CAKI-1 renal
HOP-62 NSCLC = tested on: HOP-62 NSCLC
COLO 205 colon = tested on: COLO 205 colon
SNB-75 CNS = tested on: SNB-75 CNS
NCI-H460 lung = tested on: NCI-H460 lung
HCT-116 colon = tested on: HCT-116 colon
MALME-3M melanoma = tested on: MALME-3M melanoma
UO-31 renal = tested on: UO-31 renal
SK-MEL-5 melanoma = tested on: SK-MEL-5 melanoma
RPMI-8226 leukemia = tested on: RPMI-8226 leukemia
KM12 colon = tested on: KM12 colon
CCRF-CEM leukemia = tested on: CCRF-CEM leukemia
NCI-H522 lung = tested on: NCI-H522 lung
NCI-H23 lung = tested on: NCI-H23 lung
MDA-MB-435 = tested on: MDA-MB-435
SR leukemia = tested on: SR leukemia
T-47D breast = tested on: T-47D breast
DU-145 prostate = tested on: DU-145 prostate
ACHN renal = tested on: ACHN renal
RXF 393 renal = tested on: RXF 393 renal
UACC-62 melanoma = tested on: UACC-62 melanoma
SN12C renal = tested on: SN12C renal
PC-3 prostate = tested on: PC-3 prostate
HS 578T breast = tested on: HS 578T breast
UACC-257 melanoma = tested on: UACC-257 melanoma
SF-539 CNS = tested on: SF-539 CNS
OVCAR-3 ovarian = tested on: OVCAR-3 ovarian
M14 melanoma = tested on: M14 melanoma
BT-549 breast = tested on: BT-549 breast
IGROV1 ovarian = tested on: IGROV1 ovarian

For `Cc1ccc(Sc2cc3c(oc2=O)-c2ccccc2OC3O)cc1` (centres undefined), the GI50 (A549 NSCLC) was 28.5 µM, the TGI (A549 NSCLC) was 74.8 µM and the GI50 (K-562 leukemia) was 27.7 µM. It also gave a TGI (K-562 leukemia) of over 100 µM, a GI50 (LOX IMVI melanoma) of 18 µM and a TGI (LOX IMVI melanoma) of 40 µM. For the same compound, the GI50 (MDA-MB-231 breast) was 28.8 µM, the TGI (MDA-MB-231 breast) was 71.2 µM and the GI50 (SNB-19 CNS) was 25 µM. The TGI (SNB-19 CNS) was 62.1 µM, the GI50 (SF-268 CNS) was 30.3 µM and the TGI (SF-268 CNS) was 88.6 µM. It also gave a GI50 (786-0 renal) of 24.3 µM, a TGI (786-0 renal) of 51.6 µM and a GI50 (EKVX NSCLC) of 21.9 µM. For the same compound, the TGI (EKVX NSCLC) was 43.9 µM, the GI50 (A498 renal) was 26.1 µM and the TGI (A498 renal) was 51.5 µM. For the same compound, the GI50 (HT29 colon) was 30.9 µM, the TGI (HT29 colon) was over 100 µM and the GI50 (OVCAR-8 ovarian) was 27.8 µM. It also gave a TGI (OVCAR-8 ovarian) of 71.3 µM, a GI50 (NCI/ADR-RES ovarian) of 25.2 µM and a TGI (NCI/ADR-RES ovarian) of 60.5 µM. For the same compound, the GI50 (MCF7 breast) was 35.9 µM, the TGI (MCF7 breast) was over 100 µM and the GI50 (SK-MEL-28 melanoma) was 22.2 µM. For the same compound, the TGI (SK-MEL-28 melanoma) was 57.9 µM, the GI50 (MOLT-4 leukemia) was 13.3 µM and the TGI (MOLT-4 leukemia) was 34.2 µM. The GI50 (OVCAR-5 ovarian) was 23.9 µM, the TGI (OVCAR-5 ovarian) was 49 µM and the GI50 (NCI-H226 lung) was 30 µM. For the same compound, the TGI (NCI-H226 lung) was 75 µM, the GI50 (SW-620 colon) was 22.4 µM and the TGI (SW-620 colon) was 52.3 µM. The GI50 (HL-60(TB) leukemia) was 16.6 µM, the TGI (HL-60(TB) leukemia) was 37.1 µM and the GI50 (SK-MEL-2 melanoma) was 22.1 µM. For the same compound, the TGI (SK-MEL-2 melanoma) was 47.7 µM, the GI50 (TK-10 renal) was 33.8 µM and the TGI (TK-10 renal) was 84.9 µM. The GI50 (OVCAR-4 ovarian) was 33.1 µM, the TGI (OVCAR-4 ovarian) was over 100 µM and the GI50 (HOP-92 NSCLC) was 23.4 µM. It also gave a TGI (HOP-92 NSCLC) of 51.9 µM, a GI50 (HCC-2998 colon) of 20.3 µM and a TGI (HCC-2998 colon) of 36.6 µM. It also gave a GI50 (HCT-15 colon) of 28.3 µM, a TGI (HCT-15 colon) of 76.3 µM and a GI50 (SF-295 CNS) of 30.2 µM. It also gave a TGI (SF-295 CNS) of 67.5 µM, a GI50 (U251 CNS) of 21.1 µM and a TGI (U251 CNS) of 42.3 µM. It also gave a GI50 (CAKI-1 renal) of 32 µM, a TGI (CAKI-1 renal) of 78.1 µM and a GI50 (HOP-62 NSCLC) of 22.5 µM. For the same compound, the TGI (HOP-62 NSCLC) was 44.7 µM, the GI50 (COLO 205 colon) was 15 µM and the TGI (COLO 205 colon) was 36.5 µM. For the same compound, the GI50 (SNB-75 CNS) was 30.5 µM, the TGI (SNB-75 CNS) was 81.2 µM and the GI50 (NCI-H460 lung) was 22.4 µM. It also gave a TGI (NCI-H460 lung) of 54.5 µM, a GI50 (HCT-116 colon) of 25.6 µM and a TGI (HCT-116 colon) of 59.4 µM. It also gave a GI50 (MALME-3M melanoma) of 25 µM, a TGI (MALME-3M melanoma) of 49.2 µM and a GI50 (UO-31 renal) of 21.7 µM. For the same compound, the TGI (UO-31 renal) was 50.4 µM, the GI50 (SK-MEL-5 melanoma) was 17.1 µM and the TGI (SK-MEL-5 melanoma) was 32.9 µM. It also gave a GI50 (RPMI-8226 leukemia) of 23.2 µM, a TGI (RPMI-8226 leukemia) of 79.7 µM and a GI50 (KM12 colon) of 21.5 µM. For the same compound, the TGI (KM12 colon) was 49.7 µM, the GI50 (CCRF-CEM leukemia) was 6.73 µM and the TGI (CCRF-CEM leukemia) was 78.5 µM. It also gave a GI50 (NCI-H522 lung) of 18.1 µM, a TGI (NCI-H522 lung) of 38.8 µM and a GI50 (NCI-H23 lung) of 27.7 µM. It also gave a TGI (NCI-H23 lung) of 55.3 µM, a GI50 (MDA-MB-435) of 27.2 µM and a TGI (MDA-MB-435) of 54.6 µM. For the same compound, the GI50 (SR leukemia) was 18.4 µM, the TGI (SR leukemia) was 46.3 µM and the GI50 (T-47D breast) was 24.8 µM. For the same compound, the TGI (T-47D breast) was 81.2 µM, the GI50 (DU-145 prostate) was 21.8 µM and the TGI (DU-145 prostate) was 45.2 µM. The GI50 (ACHN renal) was 24.8 µM, the TGI (ACHN renal) was 57.3 µM and the GI50 (RXF 393 renal) was 26.8 µM. It also gave a TGI (RXF 393 renal) of 62.2 µM, a GI50 (UACC-62 melanoma) of 21.2 µM and a TGI (UACC-62 melanoma) of 49.8 µM. For the same compound, the GI50 (SN12C renal) was 29.4 µM, the TGI (SN12C renal) was 73.3 µM and the GI50 (PC-3 prostate) was 28 µM. For the same compound, the TGI (PC-3 prostate) was 76.5 µM, the GI50 (HS 578T breast) was 26.1 µM and the TGI (HS 578T breast) was 61.7 µM. The GI50 (UACC-257 melanoma) was 22.3 µM, the TGI (UACC-257 melanoma) was 43.8 µM and the GI50 (SF-539 CNS) was 19.3 µM. It also gave a TGI (SF-539 CNS) of 33.8 µM, a GI50 (OVCAR-3 ovarian) of 33.3 µM and a TGI (OVCAR-3 ovarian) of 91.4 µM. It also gave a GI50 (M14 melanoma) of 22.4 µM, a TGI (M14 melanoma) of 43.5 µM and a GI50 (BT-549 breast) of 18.7 µM. The TGI (BT-549 breast) was 37.4 µM, the GI50 (IGROV1 ovarian) was 22.4 µM and the TGI (IGROV1 ovarian) was 49.2 µM.
